Assays:
COX-2 enzyme = molecular target: T1, COX-2 enzyme (Homo sapiens, UniProt P35354); test: Cyclooxygenase inhibitory assay (oxygen consumption, arachidonic acid substrate), COX-2; type: biochemical; conditions: for COX-2 enzyme inhibition: at 100 ppm (FIG. 1)
T1 sequence (P35354 18-604): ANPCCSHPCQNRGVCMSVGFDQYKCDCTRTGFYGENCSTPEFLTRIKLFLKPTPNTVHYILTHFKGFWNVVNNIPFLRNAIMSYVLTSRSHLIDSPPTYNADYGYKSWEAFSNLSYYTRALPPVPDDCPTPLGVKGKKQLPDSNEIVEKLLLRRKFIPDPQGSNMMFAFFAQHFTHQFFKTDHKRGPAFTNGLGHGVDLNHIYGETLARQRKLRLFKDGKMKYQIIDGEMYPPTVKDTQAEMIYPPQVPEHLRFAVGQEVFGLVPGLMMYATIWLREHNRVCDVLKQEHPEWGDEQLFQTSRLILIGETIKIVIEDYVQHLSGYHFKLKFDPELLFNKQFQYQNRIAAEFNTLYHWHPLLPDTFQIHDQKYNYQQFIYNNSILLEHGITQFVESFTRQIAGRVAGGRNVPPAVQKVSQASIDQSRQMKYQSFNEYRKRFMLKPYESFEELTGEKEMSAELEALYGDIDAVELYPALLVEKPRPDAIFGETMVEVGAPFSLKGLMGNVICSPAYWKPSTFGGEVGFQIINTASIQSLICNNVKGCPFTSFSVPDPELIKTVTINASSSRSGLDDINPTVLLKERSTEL
Description: (§1) Cyclooxygenase enzyme inhibitory assay of the extracts and compounds were carried out using COX-1 and COX-2 enzymes according to the previously published procedures (Jayaprakasam, B. et al., 2006. J. Agric. Food Chem., 54, 5375-5381).
(§2) Cyclooxygenase Inhibitory Activity. The rate of oxygen consumption during the initial phase of the enzyme-mediated reaction, with arachidonic acid as substrate was measured using a Model 5300 biological oxygen monitor (Yellow Spring Instrument, Inc., Yellow Spring, Ohio). The test compounds, extracts and positive controls were dissolved in DMSO and an aliquot of 10 μL of each was added to the reaction chamber containing 0.6 mL of Tris buffer (0.1 M, pH 7) and, 1 mM of phenol, hemoglobin (17 μg). COX-1 or -2 enzymes (10 μL) was added to the chamber and incubated for 3 min. The reaction was initiated by the addition of arachidonic acid (10 μL of 1 mg/mL solution). Instantaneous inhibition was measured by using Quick Log Data acquisition and control computer software (Strawberry Tree Inc., Sunnyvale, Calif., USA). The percent inhibition was calculated with respect to DMSO control. Each sample was assayed twice and the standard deviation was calculated for n=2. Aspirin, Celebrex and Vioxx were used as positive controls.

COX-1 enzyme = molecular target: T2, COX-1 enzyme (Ovis aries, UniProt P05979); test: Cyclooxygenase inhibitory assay (oxygen consumption, arachidonic acid substrate), COX-1; type: biochemical; conditions: for COX-1 enzyme inhibition: at 100 ppm (FIG. 1)
T2 sequence (P05979 25-600): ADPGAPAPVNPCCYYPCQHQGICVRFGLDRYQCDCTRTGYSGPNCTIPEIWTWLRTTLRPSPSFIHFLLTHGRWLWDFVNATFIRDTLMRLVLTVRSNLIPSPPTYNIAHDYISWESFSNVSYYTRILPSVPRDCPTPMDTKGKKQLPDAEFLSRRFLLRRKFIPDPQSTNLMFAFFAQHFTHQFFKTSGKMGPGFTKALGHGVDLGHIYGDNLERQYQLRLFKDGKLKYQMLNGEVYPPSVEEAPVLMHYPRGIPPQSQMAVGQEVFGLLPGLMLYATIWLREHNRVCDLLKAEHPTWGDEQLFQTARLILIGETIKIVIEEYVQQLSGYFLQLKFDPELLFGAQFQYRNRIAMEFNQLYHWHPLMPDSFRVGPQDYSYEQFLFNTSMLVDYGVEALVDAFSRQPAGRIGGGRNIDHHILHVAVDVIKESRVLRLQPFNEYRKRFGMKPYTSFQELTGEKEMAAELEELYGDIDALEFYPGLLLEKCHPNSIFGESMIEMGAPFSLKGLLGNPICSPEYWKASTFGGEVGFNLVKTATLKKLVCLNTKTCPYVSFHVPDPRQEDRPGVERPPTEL
Description: as §1, §2

Row | SMILES | COX-2 enzyme inhibition (COX-2 enzyme) | COX-1 enzyme inhibition (COX-1 enzyme) | further results
1 | O=Cc1ccccc1 [A, Benzaldehyde] | not active | not active | –
2 | O=Cc1cccc(O)c1 [C, 3-hydroxybenzaldehyde] | – | – | selective inhibition of COX-1 enzyme (COX-1 enzyme; FIG. 1, 100 ppm, versus COX-2): selectively inhibited COX-1 enzyme
3 | O=Cc1ccc(O)c(O)c1O [Compound J, 2,3,4-trihydroxybenzaldehyde] | – | – | selective inhibition of COX-2 enzyme (COX-2 enzyme; FIG. 1, 100 ppm, versus COX-1): selectively inhibited COX-2 enzyme; IC50 (COX-2 enzyme; dose response (FIG. 2), read-out: IC50, inhibition of COX-2 (converted)): ~64.9 µM; activity on COX-1 enzyme (COX-1 enzyme; even at a 500 ppm concentration (FIG. 2)): not active
4 | O=Cc1cc(O)c(O)cc1O [K, 2,4,5-trihydroxybenzaldehyde] | not active | not active | –
